Values after ≈ are worked out from the molar mass of the structure shown.
Tests used:
[1] = test system: Candida albicans; test: In vitro concentration to inhibit Candida albicans CDR2 transporter gene over-expressed in Saccharomyces cerevisiae strain YEM171; assay type: functional, organism-based
[2] = test system: Nakaseomyces glabratus; test: In vitro minimum potentiation concentration required to achieve an 8-fold reduction in fluconazole MIC against Candida glabrata strain YEM19 (overexpressing both […]); assay type: functional
[3] = test system: Candida albicans; test: In vitro minimum potentiation concentration required to achieve an 8-fold reduction in fluconazole MIC against Candida albicans strain YEM15 (overexpressing both CDR1 and CDR2); assay type: functional
[4] = test system: Nakaseomyces glabratus; test: In vitro concentration to inhibit Candida glabrata CgCDR1 transporter gene over-expressed in Saccharomyces cerevisiae strain Y170; assay type: functional, organism-based
[5] = test system: Nakaseomyces glabratus; test: In vitro concentration to inhibit Candida glabrata CgCDR2 transporter gene over-expressed in Saccharomyces cerevisiae strain Y218; assay type: functional, organism-based
[6] = test system: Candida albicans; test: In vitro concentration to inhibit Candida albicans CDR1 transporter gene over-expressed in Saccharomyces cerevisiae strain YEM172; assay type: functional, organism-based
[7] = test system: Saccharomyces cerevisiae; test: In vitro concentration required to inhibit 80% growth of Saccharomyces cerevisiae strain YEM171 (CDR2 over-expressed) after 48 h; assay type: functional
[8] = test system: Saccharomyces cerevisiae; test: In vitro concentration required to inhibit 80% growth of Saccharomyces cerevisiae strain YEM172 (CDR1 over-expressed) after 48 h; assay type: functional
[9] = test system: Saccharomyces cerevisiae; test: In vitro concentration required to inhibit 80% growth of Saccharomyces cerevisiae strain YEM139 (PDR5 deleted) after 48 h; assay type: functional
[10] = test system: Saccharomyces cerevisiae; test: In vitro concentration required to inhibit 80% growth of Saccharomyces cerevisiae strain Y218 (CgCDR2 over-expressed) after 48 h; assay type: functional
[11] = test system: Saccharomyces cerevisiae; test: In vitro concentration required to inhibit 80% growth of Saccharomyces cerevisiae strain Y170 (CgCDR1 over-expressed) after 48 h; assay type: functional

| Structure (SMILES) | IC50 [1] [µg/mL] | MPC8 [2] [µg/mL] | MPC8 [3] [µg/mL] | IC50 [4] [µg/mL] | IC50 [5] [µg/mL] | IC50 [6] [µg/mL] | MIC [7] [µg/mL] | MIC [8] [µg/mL] | MIC [9] [µg/mL] | MIC [10] [µg/mL] | MIC [11] [µg/mL] |
| --- | --- | --- | --- | --- | --- | --- | --- | --- | --- | --- | --- |
| COc1ccc(N(Cc2nc3ccccc3c(=O)n2N2CCN(C)CC2)C(=O)Nc2cccc(Cl)c2)c(OC)c1 | > 32 | 16 | 16 | > 32 | 32 (≈ 56.8 µM) | 32 (≈ 56.8 µM) | – | – | – | – | – |
| COc1ccc(N(C(=O)Nc2cccc(Cl)c2)[C@@H](C)c2nc3ccccc3c(=O)n2N2CCN(C)CC2)c(OC)c1 | > 32 | 1 | 1 | 4 (≈ 6.93 µM) | > 32 | 2 (≈ 3.47 µM) | – | – | – | – | – |
| CCOC(=O)CCn1c(C(C)N(C(=O)Nc2cccc(Cl)c2)c2ccc(OC)cc2OC)nc2ccccc2c1=O (configuration not stated) | > 32 | >32 | 1 | > 32 | > 32 | 0.5 (≈ 0.863 µM) | – | – | – | – | – |
| COc1ccc(N(C(=O)Nc2cccc(Cl)c2)[C@H](C)c2nc3ccccc3c(=O)n2N2CCN(C)CC2)c(OC)c1 | > 32 | >32 | >32 | > 32 | > 32 | > 32 | – | – | – | – | – |
| COc1ccc(N(C(=O)Nc2cccc(Cl)c2)C(C)c2nc3ccccc3c(=O)n2N2CCN(C)CC2)c(OC)c1 (configuration not stated) | > 16 | 4 | 1 | 8 (≈ 13.9 µM) | > 16 | 4 (≈ 6.93 µM) | – | – | – | – | – |
| COc1ccc(N(C(=O)Nc2cccc(Cl)c2)C(C)(C)c2nc3ccccc3c(=O)n2N2CCN(C)CC2)c(OC)c1 | > 32 | >32 | >32 | > 32 | > 32 | > 32 | – | – | – | – | – |
| COc1ccc(N(C(=O)Nc2cccc(Cl)c2)C(C)c2nc3ccccc3c(=O)n2Cc2ccccc2)c(OC)c1 (configuration not stated) | > 32 | >32 | 0.5 | > 32 | > 32 | 0.12 (≈ 0.211 µM) | – | – | – | – | – |
| OC(Cn1cncn1)(Cn1cncn1)c1ccc(F)cc1F [FLUCONAZOLE] | – | – | – | – | – | – | 8 (≈ 26.1 µM) | 128 (≈ 418 µM) | 0.5 (≈ 1.63 µM) | 2 (≈ 6.53 µM) | 128 (≈ 418 µM) |

— ChEMBL document CHEMBL1137045, “Quinazolinone-based fungal efflux pump inhibitors. Part 1: Discovery of an (N-methylpiperazine)-containing derivative with activity in clinically relevant Candida spp” (Bioorg Med Chem Lett, 2004)
